From ChEMBL document CHEMBL1938230, “6-Position optimization of tricyclic 4-quinolone-based inhibitors of glycogen synthase kinase-3β: discovery of nitrile derivatives with picomolar potency” (Bioorg Med Chem Lett, 2012)

What was measured:
[1] = molecular target: Cyclin-dependent kinase 14 (Homo sapiens) (UniProt O94921); assay: Inhibition of human PFTAIRE1 in HL-60 cells lysate assessed as reduction of labeling of acyl-phosphate ATP probe at 100 nM; assay type: cell-free
[2] = molecular target: Serine/threonine-protein kinase mTOR (Homo sapiens) (UniProt P42345); assay: Inhibition of human mTOR in HL-60 cells lysate assessed as reduction of labeling of acyl-phosphate ATP probe at 100 nM; assay type: cell-free
[3] = molecular target: PI4KA/PI4KAP2 (Homo sapiens) (UniProt P42356+A4QPH2); assay: Inhibition of human PI4KA/PI4KAP2 in HL-60 cells lysate assessed as reduction of labeling of acyl-phosphate ATP probe at 100 nM; assay type: cell-free
[4] = molecular target: Phosphatidylinositol 4,5-bisphosphate 3-kinase catalytic subunit beta isoform (Homo sapiens) (UniProt P42338); assay: Inhibition of human PIK3CB in HL-60 cells lysate assessed as reduction of labeling of acyl-phosphate ATP probe at 100 nM; assay type: cell-free
[5] = molecular target: Serine/threonine-protein kinase SMG1 (Homo sapiens) (UniProt Q96Q15); assay: Inhibition of human SMG1 in HL-60 cells lysate assessed as reduction of labeling of acyl-phosphate ATP probe at 100 nM; assay type: cell-free
[6] = molecular target: eIF-2-alpha kinase GCN2 (Homo sapiens) (UniProt Q9P2K8); assay: Inhibition of human GCN2 domain2 in HL-60 cells lysate assessed as reduction of labeling of acyl-phosphate ATP probe at 100 nM; assay type: cell-free
[7] = molecular target: Serine/threonine-protein kinase 16 (Homo sapiens) (UniProt O75716); assay: Inhibition of human MPSK1 in HL-60 cells lysate assessed as reduction of labeling of acyl-phosphate ATP probe at 100 nM; assay type: cell-free
[8] = molecular target: T1, EKC/KEOPS complex subunit TP53RK (Homo sapiens) (UniProt Q96S44); assay: Inhibition of human PRPK in HL-60 cells lysate assessed as reduction of labeling of acyl-phosphate ATP probe at 100 nM; assay type: cell-free
T1 sequence (whole entry): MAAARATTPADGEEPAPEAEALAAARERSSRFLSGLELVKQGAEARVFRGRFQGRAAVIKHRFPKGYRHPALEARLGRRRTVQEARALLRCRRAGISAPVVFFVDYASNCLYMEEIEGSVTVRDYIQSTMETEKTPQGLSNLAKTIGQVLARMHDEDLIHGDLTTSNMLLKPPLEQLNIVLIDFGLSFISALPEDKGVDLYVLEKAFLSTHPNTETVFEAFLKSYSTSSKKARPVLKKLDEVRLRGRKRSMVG

[9] = molecular target: T2, Dual specificity mitogen-activated protein kinase kinase 7 (Homo sapiens) (UniProt O14733); assay: Inhibition of human MAP2K7 in HL-60 cells lysate assessed as reduction of labeling of acyl-phosphate ATP probe at 100 nM; assay type: cell-free
T2 sequence (whole entry): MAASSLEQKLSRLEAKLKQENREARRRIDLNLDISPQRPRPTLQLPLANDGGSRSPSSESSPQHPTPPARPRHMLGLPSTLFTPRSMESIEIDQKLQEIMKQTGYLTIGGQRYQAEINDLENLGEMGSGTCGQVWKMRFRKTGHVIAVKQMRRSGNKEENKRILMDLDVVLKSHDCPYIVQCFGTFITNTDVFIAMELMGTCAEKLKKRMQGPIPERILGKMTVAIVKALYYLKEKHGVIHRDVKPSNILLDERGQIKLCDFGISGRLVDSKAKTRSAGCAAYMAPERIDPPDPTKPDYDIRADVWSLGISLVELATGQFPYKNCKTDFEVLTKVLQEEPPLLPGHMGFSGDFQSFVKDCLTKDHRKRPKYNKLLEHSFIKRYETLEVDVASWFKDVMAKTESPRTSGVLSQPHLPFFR

[10] = molecular target: Serine/threonine-protein kinase 26 (Homo sapiens) (UniProt Q9P289); assay: Inhibition of human MST4 in HL-60 cells lysate assessed as reduction of labeling of acyl-phosphate ATP probe at 100 nM; assay type: cell-free
HL-60 [11] = assay: Inhibition of human MST4/YSK1 in HL-60 cells lysate assessed as reduction of labeling of acyl-phosphate ATP probe at 100 nM
[12] = molecular target: Tyrosine-protein kinase Fer (Homo sapiens) (UniProt P16591); assay: Inhibition of human FER in HL-60 cells lysate assessed as reduction of labeling of acyl-phosphate ATP probe at 100 nM; assay type: cell-free
[13] = molecular target: Tyrosine-protein kinase Fgr (Homo sapiens) (UniProt P09769); assay: Inhibition of human FGR in HL-60 cells lysate assessed as reduction of labeling of acyl-phosphate ATP probe at 100 nM; assay type: cell-free
HL-60 [14] = assay: Inhibition of human FYN/SRC/YES in HL-60 cells lysate assessed as reduction of labeling of acyl-phosphate ATP probe at 100 nM
[15] = molecular target: Protein-tyrosine kinase 2-beta (Homo sapiens) (UniProt Q14289); assay: Inhibition of human PYK2 in HL-60 cells lysate assessed as reduction of labeling of acyl-phosphate ATP probe at 100 nM; assay type: cell-free
HL-60 [16] = assay: Inhibition of human KSR1/KSR2 in HL-60 cells lysate assessed as reduction of labeling of acyl-phosphate ATP probe at 100 nM
[17] = molecular target: T3, Mitogen-activated protein kinase kinase kinase 2 (Homo sapiens) (UniProt Q9Y2U5); assay: Inhibition of human MAP3K2 in HL-60 cells lysate assessed as reduction of labeling of acyl-phosphate ATP probe at 100 nM; assay type: cell-free
T3 sequence (whole entry): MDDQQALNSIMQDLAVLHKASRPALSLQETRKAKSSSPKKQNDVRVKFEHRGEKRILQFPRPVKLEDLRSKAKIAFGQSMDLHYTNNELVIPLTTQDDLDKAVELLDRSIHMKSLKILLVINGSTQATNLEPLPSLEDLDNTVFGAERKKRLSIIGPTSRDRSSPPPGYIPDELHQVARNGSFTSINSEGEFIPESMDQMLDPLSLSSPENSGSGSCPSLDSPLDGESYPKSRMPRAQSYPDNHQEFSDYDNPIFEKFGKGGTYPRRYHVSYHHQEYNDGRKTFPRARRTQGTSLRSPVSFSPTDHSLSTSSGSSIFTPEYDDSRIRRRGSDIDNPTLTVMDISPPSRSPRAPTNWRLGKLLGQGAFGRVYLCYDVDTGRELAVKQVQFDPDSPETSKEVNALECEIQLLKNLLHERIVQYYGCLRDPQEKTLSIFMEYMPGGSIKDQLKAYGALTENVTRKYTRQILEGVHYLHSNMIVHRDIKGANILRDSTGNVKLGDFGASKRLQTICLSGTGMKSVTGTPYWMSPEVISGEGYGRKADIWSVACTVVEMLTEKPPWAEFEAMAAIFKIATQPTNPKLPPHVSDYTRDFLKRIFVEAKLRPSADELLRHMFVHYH

[18] = molecular target: Cyclin-dependent kinase 2 (Homo sapiens) (UniProt P24941); assay: Inhibition of human CDK2 in HL-60 cells lysate assessed as reduction of labeling of acyl-phosphate ATP probe at 100 nM; assay type: cell-free
[19] = molecular target: Mitogen-activated protein kinase 3 (Homo sapiens) (UniProt P27361); assay: Inhibition of human Erk1 in HL-60 cells lysate assessed as reduction of labeling of acyl-phosphate ATP probe at 100 nM; assay type: cell-free
Chain of Mitogen-activated protein kinase 3 (Homo sapiens) (P27361 whole entry): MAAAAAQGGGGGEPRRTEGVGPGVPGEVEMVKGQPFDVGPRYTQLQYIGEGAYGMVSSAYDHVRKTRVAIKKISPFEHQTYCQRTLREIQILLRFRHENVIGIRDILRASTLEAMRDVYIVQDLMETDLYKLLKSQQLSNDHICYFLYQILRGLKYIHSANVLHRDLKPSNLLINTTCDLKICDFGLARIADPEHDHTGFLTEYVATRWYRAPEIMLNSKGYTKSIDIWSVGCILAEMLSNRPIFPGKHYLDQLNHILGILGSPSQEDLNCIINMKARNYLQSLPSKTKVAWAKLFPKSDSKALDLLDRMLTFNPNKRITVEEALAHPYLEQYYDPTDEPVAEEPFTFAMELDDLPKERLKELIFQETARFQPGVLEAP

Chain of Tyrosine-protein kinase Fer (Homo sapiens) (P16591 whole entry, looked up): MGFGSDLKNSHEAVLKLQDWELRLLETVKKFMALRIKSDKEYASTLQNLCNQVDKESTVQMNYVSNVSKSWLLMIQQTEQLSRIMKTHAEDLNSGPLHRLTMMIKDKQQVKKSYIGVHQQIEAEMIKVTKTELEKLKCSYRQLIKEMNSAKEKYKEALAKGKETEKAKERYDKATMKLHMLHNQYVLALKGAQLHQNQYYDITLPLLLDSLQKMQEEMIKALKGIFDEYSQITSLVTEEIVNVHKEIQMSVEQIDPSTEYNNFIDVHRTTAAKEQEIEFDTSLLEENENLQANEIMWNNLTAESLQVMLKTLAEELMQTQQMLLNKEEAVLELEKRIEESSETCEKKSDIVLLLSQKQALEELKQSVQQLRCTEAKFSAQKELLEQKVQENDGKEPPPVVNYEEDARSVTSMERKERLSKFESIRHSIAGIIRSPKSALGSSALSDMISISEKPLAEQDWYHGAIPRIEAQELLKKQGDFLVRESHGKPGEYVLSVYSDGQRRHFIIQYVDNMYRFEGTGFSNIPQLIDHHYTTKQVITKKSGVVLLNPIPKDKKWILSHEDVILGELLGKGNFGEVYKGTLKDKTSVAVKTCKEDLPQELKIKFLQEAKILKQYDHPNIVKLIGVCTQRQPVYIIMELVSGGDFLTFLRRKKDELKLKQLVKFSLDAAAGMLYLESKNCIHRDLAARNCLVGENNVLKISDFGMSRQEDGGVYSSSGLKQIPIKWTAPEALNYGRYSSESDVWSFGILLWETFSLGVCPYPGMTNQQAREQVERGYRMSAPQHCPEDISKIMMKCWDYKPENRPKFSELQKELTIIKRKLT
Chain of Protein-tyrosine kinase 2-beta (Homo sapiens) (Q14289 whole entry, looked up): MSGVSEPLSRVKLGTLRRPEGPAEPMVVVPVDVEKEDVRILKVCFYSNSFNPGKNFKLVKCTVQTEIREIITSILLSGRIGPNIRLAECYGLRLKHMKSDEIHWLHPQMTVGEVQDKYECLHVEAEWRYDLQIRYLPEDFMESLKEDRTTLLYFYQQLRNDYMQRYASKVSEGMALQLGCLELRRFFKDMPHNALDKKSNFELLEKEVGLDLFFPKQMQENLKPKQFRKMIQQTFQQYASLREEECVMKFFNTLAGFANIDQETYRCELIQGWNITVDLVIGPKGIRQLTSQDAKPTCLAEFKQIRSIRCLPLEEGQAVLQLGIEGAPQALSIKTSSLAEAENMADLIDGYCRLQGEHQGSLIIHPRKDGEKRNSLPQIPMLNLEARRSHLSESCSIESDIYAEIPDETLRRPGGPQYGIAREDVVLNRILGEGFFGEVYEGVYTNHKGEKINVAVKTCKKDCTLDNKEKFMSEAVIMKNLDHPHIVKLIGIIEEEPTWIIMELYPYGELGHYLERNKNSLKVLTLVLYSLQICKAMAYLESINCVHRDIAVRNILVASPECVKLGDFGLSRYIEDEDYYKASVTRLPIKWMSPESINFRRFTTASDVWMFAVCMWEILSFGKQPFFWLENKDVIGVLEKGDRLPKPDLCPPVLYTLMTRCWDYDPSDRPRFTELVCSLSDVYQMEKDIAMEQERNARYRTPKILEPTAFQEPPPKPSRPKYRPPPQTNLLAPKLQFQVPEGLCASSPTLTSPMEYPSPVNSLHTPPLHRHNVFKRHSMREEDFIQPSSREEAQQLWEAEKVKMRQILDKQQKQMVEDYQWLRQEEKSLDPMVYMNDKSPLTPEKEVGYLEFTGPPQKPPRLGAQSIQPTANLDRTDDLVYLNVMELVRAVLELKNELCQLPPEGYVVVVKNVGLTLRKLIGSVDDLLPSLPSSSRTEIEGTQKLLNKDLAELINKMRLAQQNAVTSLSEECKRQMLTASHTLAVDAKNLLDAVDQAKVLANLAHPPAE
Chain of Phosphatidylinositol 4,5-bisphosphate 3-kinase catalytic subunit beta isoform (Homo sapiens) (P42338 whole entry, looked up, canonical isoform): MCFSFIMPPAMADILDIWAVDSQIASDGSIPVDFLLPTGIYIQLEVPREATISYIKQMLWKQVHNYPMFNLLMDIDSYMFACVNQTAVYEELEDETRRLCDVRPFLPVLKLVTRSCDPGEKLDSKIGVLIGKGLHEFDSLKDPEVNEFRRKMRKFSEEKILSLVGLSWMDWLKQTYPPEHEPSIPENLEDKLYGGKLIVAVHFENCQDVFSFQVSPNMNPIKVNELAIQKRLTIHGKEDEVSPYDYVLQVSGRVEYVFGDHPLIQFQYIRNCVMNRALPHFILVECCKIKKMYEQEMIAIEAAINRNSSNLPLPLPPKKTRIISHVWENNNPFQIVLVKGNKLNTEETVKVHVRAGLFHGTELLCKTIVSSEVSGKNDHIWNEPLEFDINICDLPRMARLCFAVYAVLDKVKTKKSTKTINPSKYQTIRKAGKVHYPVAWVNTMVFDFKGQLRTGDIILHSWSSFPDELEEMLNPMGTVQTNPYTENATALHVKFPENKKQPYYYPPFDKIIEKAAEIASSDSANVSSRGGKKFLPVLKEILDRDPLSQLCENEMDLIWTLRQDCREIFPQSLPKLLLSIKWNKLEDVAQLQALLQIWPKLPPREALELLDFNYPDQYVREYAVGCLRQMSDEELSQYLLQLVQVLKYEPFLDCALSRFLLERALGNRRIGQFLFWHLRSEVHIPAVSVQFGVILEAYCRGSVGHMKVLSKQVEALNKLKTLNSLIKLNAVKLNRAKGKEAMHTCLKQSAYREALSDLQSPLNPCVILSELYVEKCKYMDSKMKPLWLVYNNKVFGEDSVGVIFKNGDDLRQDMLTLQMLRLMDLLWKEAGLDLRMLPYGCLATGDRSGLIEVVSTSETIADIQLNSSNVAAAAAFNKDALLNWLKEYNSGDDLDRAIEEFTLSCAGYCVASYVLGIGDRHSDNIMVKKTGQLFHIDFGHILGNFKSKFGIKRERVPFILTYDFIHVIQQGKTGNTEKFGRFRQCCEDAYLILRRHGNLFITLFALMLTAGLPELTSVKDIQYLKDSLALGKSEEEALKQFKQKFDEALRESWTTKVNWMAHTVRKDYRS
Chain of eIF-2-alpha kinase GCN2 (Homo sapiens) (Q9P2K8 whole entry, the tested form may be a part): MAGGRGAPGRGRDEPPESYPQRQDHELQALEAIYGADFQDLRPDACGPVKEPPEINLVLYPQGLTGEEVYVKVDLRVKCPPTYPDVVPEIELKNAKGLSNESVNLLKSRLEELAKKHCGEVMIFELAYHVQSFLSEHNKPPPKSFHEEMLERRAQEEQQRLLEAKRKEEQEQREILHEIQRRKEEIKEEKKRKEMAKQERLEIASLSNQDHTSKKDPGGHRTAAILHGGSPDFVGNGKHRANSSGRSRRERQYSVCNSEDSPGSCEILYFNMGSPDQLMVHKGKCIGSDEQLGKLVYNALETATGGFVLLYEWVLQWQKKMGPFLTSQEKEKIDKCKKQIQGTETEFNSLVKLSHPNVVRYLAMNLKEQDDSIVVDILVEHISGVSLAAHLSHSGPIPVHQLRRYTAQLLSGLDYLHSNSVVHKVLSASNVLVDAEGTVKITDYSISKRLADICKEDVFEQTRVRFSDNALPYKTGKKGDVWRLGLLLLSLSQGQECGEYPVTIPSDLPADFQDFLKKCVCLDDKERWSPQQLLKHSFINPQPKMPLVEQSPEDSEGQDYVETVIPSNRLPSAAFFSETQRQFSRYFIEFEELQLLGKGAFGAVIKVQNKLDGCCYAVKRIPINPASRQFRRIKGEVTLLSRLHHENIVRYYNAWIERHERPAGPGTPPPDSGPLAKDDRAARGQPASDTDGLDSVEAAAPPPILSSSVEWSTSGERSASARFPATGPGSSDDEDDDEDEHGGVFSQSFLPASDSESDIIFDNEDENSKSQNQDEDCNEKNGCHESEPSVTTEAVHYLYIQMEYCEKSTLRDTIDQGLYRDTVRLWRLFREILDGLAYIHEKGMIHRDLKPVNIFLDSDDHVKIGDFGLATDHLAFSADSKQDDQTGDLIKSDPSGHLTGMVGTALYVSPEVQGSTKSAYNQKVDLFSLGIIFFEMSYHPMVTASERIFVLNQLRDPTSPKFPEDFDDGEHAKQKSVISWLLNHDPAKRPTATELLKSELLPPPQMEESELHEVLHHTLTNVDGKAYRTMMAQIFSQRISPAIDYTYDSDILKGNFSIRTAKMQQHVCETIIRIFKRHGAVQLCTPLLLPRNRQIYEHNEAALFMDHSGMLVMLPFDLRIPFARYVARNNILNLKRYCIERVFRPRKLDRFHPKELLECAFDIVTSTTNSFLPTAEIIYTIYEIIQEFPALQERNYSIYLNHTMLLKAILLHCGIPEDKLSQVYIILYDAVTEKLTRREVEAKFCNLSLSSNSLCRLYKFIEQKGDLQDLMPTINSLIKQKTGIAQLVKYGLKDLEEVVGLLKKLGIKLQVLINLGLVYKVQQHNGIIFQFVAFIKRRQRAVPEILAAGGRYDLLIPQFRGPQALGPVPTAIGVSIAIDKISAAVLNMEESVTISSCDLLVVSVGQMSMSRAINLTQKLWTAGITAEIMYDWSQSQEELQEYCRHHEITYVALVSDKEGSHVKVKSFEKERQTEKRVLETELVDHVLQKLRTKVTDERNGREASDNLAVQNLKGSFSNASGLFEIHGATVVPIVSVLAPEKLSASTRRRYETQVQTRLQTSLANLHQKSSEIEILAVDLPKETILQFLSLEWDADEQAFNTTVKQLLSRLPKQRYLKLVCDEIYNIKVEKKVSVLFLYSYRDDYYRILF

| inhibition [1] [%] | inhibition [2] [%] | inhibition [3] [%] | inhibition [4] [%] | inhibition [5] [%] | inhibition [6] [%] | inhibition [7] [%] | inhibition [8] [%] | inhibition [9] [%] | inhibition [10] [%] | inhibition [12] [%] | inhibition [13] [%] | inhibition [15] [%] | inhibition [17] [%] | inhibition [18] [%] | inhibition [19] [%] | Compound | inhibition at 0.1 µM (HL-60 [11]) [%] | inhibition at 0.1 µM (HL-60 [14]) [%] | inhibition at 0.1 µM (HL-60 [16]) [%] |
| --- | --- | --- | --- | --- | --- | --- | --- | --- | --- | --- | --- | --- | --- | --- | --- | --- | --- | --- | --- |
| < 35 | < 35 | < 35 | < 35 | < 35 | < 35 | < 35 | < 35 | < 35 | < 35 | < 35 | < 35 | < 35 | < 35 | < 35 | < 35 | C[C@H]1COc2c(NCCCc3ccccn3)c(F)c(N)c3c(=O)c(C#N)cn1c23 | < 35 | < 35 | < 35 |
| < 35 | < 35 | < 35 | < 35 | < 35 | < 35 | < 35 | < 35 | < 35 | < 35 | < 35 | < 35 | < 35 | < 35 | < 35 | < 35 | C[C@H]1COc2c(NCCCn3cccn3)c(F)c(N)c3c(=O)c(C(=O)O)cn1c23 | < 35 | < 35 | < 35 |
| < 35 | < 35 | < 35 | < 35 | < 35 | < 35 | < 35 | < 35 | < 35 | < 35 | < 35 | < 35 | < 35 | < 35 | < 35 | < 35 | C[C@H]1COc2c(NCCCc3ccccn3)c(F)c(N)c3c(=O)c(C(=O)O)cn1c23 | < 35 | < 35 | < 35 |
| < 35 | < 35 | < 35 | < 35 | < 35 | < 35 | < 35 | < 35 | < 35 | < 35 | < 35 | < 35 | < 35 | < 35 | < 35 | < 35 | C[C@H]1COc2c(NCCCn3cccn3)c(F)c(N)c3c(=O)c(C#N)cn1c23 | < 35 | < 35 | < 35 |
